What was measured:
memapsin 2 = biological target: T1, memapsin 2 (Homo sapiens, UniProt P56817); assay: Inhibition of memapsin 2 cleavage of fluorogenic substrate FS-2 (Ki, Ki apparent, Vi/Vo, % inhibition); assay type: biochemical; settings: for Ki: Table 1, apparent Ki in presence of substrate FS-2, N.I. = no inhibition, read-out: Ki app; for % Inh (M1/M2): Table 9, ratio of % inhibition memapsin 1 / memapsin 2, 1 or less = greater inhibition of memapsin 2
T1 construct: made in house; host or cells: E. coli
T1 sequence (P56817 41-454): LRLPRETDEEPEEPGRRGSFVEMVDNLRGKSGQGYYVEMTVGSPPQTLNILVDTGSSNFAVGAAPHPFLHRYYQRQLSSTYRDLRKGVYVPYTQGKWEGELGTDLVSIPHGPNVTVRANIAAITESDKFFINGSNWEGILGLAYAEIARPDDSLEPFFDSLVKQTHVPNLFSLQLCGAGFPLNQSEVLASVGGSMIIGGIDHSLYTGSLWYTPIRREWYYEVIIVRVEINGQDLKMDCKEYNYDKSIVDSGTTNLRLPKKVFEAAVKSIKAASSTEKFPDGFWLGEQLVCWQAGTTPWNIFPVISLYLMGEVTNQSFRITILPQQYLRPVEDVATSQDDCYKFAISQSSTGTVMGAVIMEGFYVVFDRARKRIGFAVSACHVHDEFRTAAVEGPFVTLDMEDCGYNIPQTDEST
Protocol: Ki is the inhibition equilibrium constant which indicates the ability of compounds to inhibit the β-secretase activity of memapsin 2 and memapsin 1. […] The K1 value is independent of the substrate, and converted from Ki apparent.
The Vi/Vo values depicted in Table 1 were determined at conditions under which the enzyme and inhibitor concentrations were equal (e.g., about 80 nM, 100 nM).
The relationship of Ki (independent of substrate concentration) to Kiapp is a function of substrate concentration in the assay and the Km for cleavage of the substrate by either memapsin 1 or memapsin 2 by the relationship: Kiapp=Ki(1+[S]/Km).
Ki is the inhibition equilibrium constant which indicates the ability of compounds to inhibit the β-secretase activity of memapsin 2 and memapsin 1. […] The Ki value is independent of the substrate, and converted from Ki apparent.
An aliquot of the inhibitor of known concentration in DMSO was diluted into 1.8 ml 0.1 M NaOAc, pH 4.0. DMSO and added to a final concentration of 10% (v/v), and memapsin 2 (final concentration of 80 nM), followed by a 20 minute equilibration at 37° C. Compounds were evaluated for the ability to inhibit memapsin 1 and memapsin 2 at concentrations between about 10 nM and about 10 μm of inhibitor.
The relationship of Ki (independent of substrate concentration) to Kiapp is a function of substrate concentration in the assay and the Km for cleavage of the substrate by either memapsin 1 or memapsin 2 by the relationship: Kiapp=Ki (1+[S]/Km).

plasma Aβ40 = assay: Inhibition of Aβ production in APP/F transgenic mouse model of Alzheimer's disease (plasma Aβ40 sandwich ELISA); assay type: in vivo, mice; settings: for Reduction of plasma Aβ40 / Course of inhibition of plasma Aβ40 over a 24-h period: APP/F mice; for Reduction of plasma Aβ40: about 163 nanomoles i.p., within 30 minutes following injection; for Course of inhibition of plasma Aβ40 over a 24-h period: single i.p. injection; for Blood brain barrier penetration in transgenic mice: concluded from reduction of plasma Aβ
Protocol: Compounds MMI-138, MMI-165, and MMI-185 were synthesized as described above. Compounds were dissolved in 1 ml of dimethyl sulfoxide (DMSO) to a final concentration of about 1 mg/ml for MMI-165 and MMI-185, and about 10 mg/ml for MMI-138. […] Inhibitors were diluted into PBS or H2O immediately prior to injection, as described below. Inhibition constants were determined by methods described by Ermolieff, et al (Biochem. 39:12450-12456 (2000), the teachings of which are incorporated hereby in their entirety).
The tg2576 strain of mice was obtained from Taconic (Germantown, N.Y.). The APP/F strain of mice were obtained by mating the tg2576 mice with the FVB/N strain. To determine presence of the Swedish APP gene in APP/F mice, the DNA from mice was isolated according to the Qiagen Dneasy™ Tissue Kit. PCR (Qiagen kit and protocol) was used to amplify the fragment of DNA corresponding to the human Swedish APP gene. The following primers were used: […]
At the age of three months, animals of the Alzheimer's disease mouse model APP/F were injected intraperitoneally (i.p.) with about 163 nanomoles of either compounds MMI-138 (molecular weight 674 g/mole; 110 μg per animal, n=2), MMI-165 (molecular weight 626 g/mole; 102 μg per animal, n—2), or MMI-185 (molecular weight 686; 112 μg per animal, n—2).
Heparinized capillary tubes collected blood samples from anesthetized animals from either the retro-orbital sinus or from the saphenous vein at specified intervals following injection. The blood samples were transferred to sterile 1.5 mL microcentrifuge tubes, centrifuged at 5,100 RPM for 10 minutes to recover the plasma (supernatant), and stored at −70° C. until analysis for the Aβ40 by Enzyme Linked-Immuno-Sorbent Assay (ELISA).
A sandwich ELISA (BioSource International, Camarillo, Calif.) was used to determine the levels of Aβ40 in plasma samples. The ELISA utilizes a primary antibody specific for human Aβ for the immobilization of the amino-terminus and a detection antibody specific for the carboxy-terminal amino acids of Aβ40. A conjugated secondary antibody was used to detect the ternary complex, using a stabilized chromogen substrate, quantifiable following addition of 1 M HCl, with the optical densities measured at 450 nm. The procedures were followed according to the BioSource protocol. Optical densities were converted to pg/ml quantities of Aβ40 using a linear regression of the optical densities of standards obtained from the commercial kit, to their known concentrations.

Structure (SMILES): CSCC[C@H](NC(=O)[C@@H](NC(=O)OC(C)(C)C)C(C)C)C(=O)N[C@@H](CC(C)C)[C@@H](O)CN(C)C(=O)[C@H](NC(=O)OCc1ccccc1)C(C)C [MMI-061]
- Ki (memapsin 2): 15500 µM

Structure (SMILES): CSCC[C@H](NC(=O)[C@@H](NC(=O)OC(C)(C)C)C(C)C)C(=O)N[C@@H](CC(C)C)[C@@H](O)C[C@@H](C)C(=O)N[C@@H](C(C)C)C1CCCCO1 (stereo partly shown) [MMI-130]
- Ki (memapsin 2): 110 µM

Structure (SMILES): CSCC[C@H](NC(=O)OCn1nc(C)cc1C)C(=O)N[C@@H](CC(C)C)[C@@H](O)C[C@]1(C)CCN([C@@H](CC(C)C)C(=O)NCC(C)C)C1=O [MMI-181]
- % Inh (M1/M2) (memapsin 2): 0.19

Structure (SMILES): CSCC[C@H](NC(=O)[C@@H](NC(=O)OC(C)(C)C)C(C)C)C(=O)N[C@@H](CC(C)C)[C@@H](O)C[C@@H](CO)C(=O)N[C@H](C(=O)NCc1ccccc1)C(C)C [MMI-132]
- % Inh (M1/M2) (memapsin 2): 1.30

Structure (SMILES): CC(C)C[C@H](NC(=O)[C@H](CCO)NC(=O)c1cnc2ccccc2c1)[C@@H](O)C[C@@H](C)C(=O)N[C@H](C(=O)N[C@H]1c2ccccc2C[C@H]1O)C(C)C [MMI-049]
- Ki (memapsin 2): 198 µM

Structure (SMILES): CSCC[C@H](NC(=O)OCn1nc(C)cc1C)C(=O)N[C@@H](CC(C)C)[C@@H](O)C[C@@H](C)C(=O)N[C@H](C(=O)NC(C)C)C(C)C [MMI-165]
- Reduction of plasma Aβ40 (plasma Aβ40): 46%
- Course of inhibition of plasma Aβ40 over a 24-h period (plasma Aβ40): remained nearly constant
- Blood brain barrier penetration in transgenic mice (plasma Aβ40): penetrated the blood brain barrier
- % Inh (M1/M2) (memapsin 2): 0.45

Structure (SMILES): CSCC[C@H](NC(=O)[C@H](C)NC(=O)[C@H](C)C[C@H](O)[C@H](CC(C)C)NC(=O)OC(C)(C)C)C(=O)NCc1ccccc1 [MMI-002]
- Ki (memapsin 2): 431 µM

Structure (SMILES): CSCC[C@H](NC(=O)[C@@H](NC(=O)OC(C)(C)C)C(C)C)C(=O)N[C@@H](CC(C)C)[C@@H](O)C[C@@H](CO)C(=O)N[C@H](C(=O)NCc1ccccc1)C(C)C [MMI-078]
- % Inh (M1/M2) (memapsin 2; listed as 78): 0.76

Structure (SMILES): CSCC[C@H](NC(=O)OCn1nc(C)cc1C)C(=O)N[C@@H](CC(C)C)[C@@H](O)C[C@@H](C)C(=O)N[C@H](C(=O)NCc1ccccc1)C(C)C [MMI-138]
- Reduction of plasma Aβ40 (plasma Aβ40): 57%
- Course of inhibition of plasma Aβ40 over a 24-h period (plasma Aβ40): remained nearly constant
- Blood brain barrier penetration in transgenic mice (plasma Aβ40): penetrated the blood brain barrier
- % Inh (M1/M2) (memapsin 2): 0.10
- Ki for memapsin 2 lower than Ki for memapsin 1 (selectivity) (memapsin 2; memapsin 2 relative to memapsin 1, stated in text): about 60 fold

Structure (SMILES): CCC(C)[C@H](NC(=O)[C@H](C)C[C@H](O)[C@H](CC(C)C)NC(=O)[C@H](CCO)NC(=O)c1cnc2ccccc2c1)C(=O)N[C@H]1c2ccccc2C[C@H]1O (stereo partly shown) [MMI-050]
- Ki (memapsin 2): 146 µM

Structure (SMILES): CC(C)C[C@H](NC(=O)[C@H](CCS(C)(=O)=O)NC(=O)[C@@H](NC(=O)OC(C)(C)C)C(C)C)[C@@H](O)C[C@@H](C)C(=O)N[C@@H](C(=O)NCc1ccccc1)[C@@H](C)O [MMI-073]
- % Inh (M1/M2) (memapsin 2): 0.73

Structure (SMILES): Cc1cc(C)n(COC(=O)N[C@@H](CCS(C)(=O)=O)C(=O)N[C@@H](CC(C)C)[C@@H](O)C[C@@H](C)C(=O)N[C@H](C(=O)NCc2ccccc2)C(C)C)n1 [MMI-139]
- % Inh (M1/M2) (memapsin 2): 0

Structure (SMILES): CC(C)C[C@H](NC(=O)[C@H](CCS(C)(=O)=O)NC(=O)[C@@H](NC(=O)OC(C)(C)C)C(C)C)[C@@H](O)C[C@@H](C)C(=O)N[C@@H]1CCCC[C@@H]1O [MMI-058]
- Ki (memapsin 2): 408 µM

Structure (SMILES): COCC[C@H](NC(=O)[C@H](CC(C)C)NC(=O)OC(C)(C)C)C(=O)N[C@@H](CC(C)C)[C@@H](O)C[C@@H](C)C(=O)N[C@@H](CC(C)C)C(=O)NC(C)C [MMI-185]
- Reduction of plasma Aβ40 (plasma Aβ40): 63%
- Course of inhibition of plasma Aβ40 over a 24-h period (plasma Aβ40): appeared to return to initial level
- Blood brain barrier penetration in transgenic mice (plasma Aβ40): penetrated the blood brain barrier

Structure (SMILES): CSCC[C@H](NC(=O)[C@@H](NC(=O)OC(C)(C)C)C(C)C)C(=O)N[C@@H](CC(C)C)[C@@H](O)C[C@@H](C)C(=O)N[C@H]1c2ccccc2C[C@H]1O [MMI-046]
- Ki (memapsin 2): 150 µM

Structure (SMILES): CCCCNC(=O)[C@@H](NC(=O)[C@H](C)C[C@H](O)[C@H](CC(C)C)NC(=O)[C@H](CCSC)NC(=O)OCn1nc(C)cc1C)C(C)C [MMI-167]
- % Inh (M1/M2) (memapsin 2): 0.18

Structure (SMILES): CC(C)C[C@H](NC(=O)[C@H](CCS(C)(=O)=O)NC(=O)[C@@H](NC(=O)OC(C)(C)C)C(C)C)[C@@H](O)C[C@@H](C)C(=O)N[C@H]1c2ccccc2C[C@H]1O [MMI-047]
- Ki (memapsin 2): 111 µM

Structure (SMILES): CSCC[C@H](NC(=O)OCCn1nc(C(C)C)cc1C(C)C)C(=O)N[C@@H](CC(C)C)[C@@H](O)C[C@@H](C)C(=O)N[C@H](C(=O)NCC(C)C)C(C)C [MMI-180]
- % Inh (M1/M2) (memapsin 2): 0

Structure (SMILES): Cc1c(O)cccc1C(=O)N[C@@H](C(C)C)[C@@H](O)N[C@@H](CCS(C)(=O)=O)C(=O)N[C@@H](CC(C)C)[C@@H](O)C[C@@H](C)C(=O)N[C@@H](CC(C)C)C(=O)NCc1ccccc1 [MMI-122]
- Vi/Vo (memapsin 2; ratio of initial cleavage velocities of FS-2 with/without compound, enzyme and inhibitor concentrations equal (e.g., about 80 nM, 100 nM)): 1.17

Structure (SMILES): CSCC[C@H](NC(=O)OCn1nc(C)cc1C)C(=O)N[C@@H](CC(C)C)[C@@H](O)C[C@@H](C)C(=O)N[C@H](C(=O)NCC(C)C)C(C)C [MMI-156]
- % Inh (M1/M2) (memapsin 2): 0.47

Structure (SMILES): CC(C)C[C@H](NC(=O)[C@H](CCS(C)(=O)=O)NC(=O)[C@@H](NC(=O)OC(C)(C)C)C(C)C)[C@@H](O)C[C@@H](C)C(=O)N[C@@H]1CCCC[C@@H]1O [MMI-060]
- Ki (memapsin 2): 101 µM

Structure (SMILES): CSCC[C@H](NC(=O)OCCn1nc(C)cc1C)C(=O)N[C@@H](CC(C)C)[C@@H](O)C[C@@H](C)C(=O)N[C@@H](CC(C)C)C(=O)NCC(C)C [MMI-176]
- % Inh (M1/M2) (memapsin 2): 0

Structure (SMILES): CC(C)C[C@H](NC(=O)OC(C)(C)C)[C@@H](O)C[C@@H](C)C(=O)N[C@@H](C)C(=O)NCc1ccccc1 [MMI-001]
- Ki (memapsin 2): 3740 µM

Structure (SMILES): CC(C)C[C@H](NC(=O)OC(C)(C)C)[C@@H](O)C[C@@H](C)C(=O)N[C@@H](C)C(=O)N[C@@H](CCS(C)(=O)=O)C(=O)NCc1ccccc1 [MMI-003]
- Ki (memapsin 2): 2620 µM

Structure (SMILES): CSCC[C@H](NC(=O)[C@@H](NC(=O)OC(C)(C)C)C(C)C)C(=O)N[C@@H](CC(C)C)[C@@H](O)C[C@@H](C)C(=O)N[C@H]1CCCC[C@@H]1O [MMI-055]
- Ki (memapsin 2): 631 µM

Structure (SMILES): CCCCNC(=O)[C@H](C(C)C)N1CC[C@@](C)(C[C@H](O)[C@H](CC(C)C)NC(=O)[C@H](CCSC)NC(=O)OCn2nc(C)cc2C)C1=O [MMI-182]
- % Inh (M1/M2) (memapsin 2): 0

Structure (SMILES): CSCC[C@H](NC(=O)OCn1nc(C)cc1C)C(=O)N[C@@H](CC(C)C)[C@@H](O)C[C@@H](C)C(=O)N[C@@H](CC(C)C)C(=O)NC(CF)CF [MMI-171]
- % Inh (M1/M2) (memapsin 2): 0.18

Structure (SMILES): CC(C)C[C@H](NC(=O)[C@H](CCS(C)(=O)=O)NC(=O)[C@@H](NC(=O)OC(C)(C)C)C(C)C)[C@@H](O)C[C@@H](C)C(=O)N[C@@H]1c2ccccc2C[C@@H]1O [MMI-054]
- Ki (memapsin 2): 469 µM

Reference: patent publication US20060234944A1, “Beta-secretase inhibitors and methods of use” (Oklahoma Medical Reseach Foundation, priority 2001, published 2006)
